Paper PMC11078746 (Nature, 2024)

Assays:
HEC6 xenograft = test: MSI xenograft model efficacy; assay type: in vivo, mouse; conditions: HEC6, Endometrial carcinoma; 60 or 120 mg/kg
Experimental: (§1) All animal studies were conducted in accordance with ethics and procedures covered by permit BS-2275 and BS-1975 issued by the Kantonales Veterinäramt Basel-Stadt and in strict adherence to guidelines of the Eidgenössisches Tierschutzgesetz and the Eidgenössische Tierschutzverordnung, Switzerland. All animal studies were approved by the internal ethics committee. All animals had access to food and water ad libitum and were identified with transponders. They were housed in a specific-pathogen-free facility in IVC racks under a 12 h–12 h light–dark cycle. To establish cell-line-derived xenograft models, 6–7-week-old female athymic nude (Crl:NU(NCr)-Foxn1^nu) or SCID-BEIGE (CB17.Cg-PrkdcscidLystbg-J/Crl) mice from Charles River were engrafted subcutaneously with 5 million tumour cells in HBSS (H6648, Sigma-Aldrich). For SNU-407, Lovo, IM95, RL95.2, Ishikawa and IGROV-1, the cells were concentrated in 50% Matrigel (354234, Corning). Patient-derived xenografts were induced and expanded by transplantation as previously described. […] For the efficacy experiment, mice were randomized into groups (n = 5–6) for a mean tumour size of 100–150 mm^3. […] Blood samples were collected on day 7 and 91. […] Tumour responses are reported with the measures of tumour volumes from the treatment start. […] Animals were randomized (n = 3) and tumour samples were collected at 0, 1, 4, 8 and 24 h on the first day and then collected 4 h after the last treatment on day 3, 8, 10, 14 (including a 24 h timepoint), 17 and 21. Tumours were excised, weighed, either frozen in liquid nitrogen and cryogenic dry pulverized with the CryoPrep system (model CP-02, Covaris) or processed to FFPE after fixation. […] On day 12, blood samples were collected for PK analysis. On the last day (3 h after the last treatment), tumours were excised, weighed, frozen in liquid nitrogen and cryogenic dry pulverized for PD analysis.

5495-HX xenograft = test: MSI xenograft model efficacy; assay type: in vivo, mouse; conditions: colorectal carcinoma, 60 or 120 mg/kg
Experimental: as §1

5148-HX xenograft = test: MSI xenograft model efficacy; assay type: in vivo, mouse; conditions: Gastric carcinoma, 60 or 120 mg/kg
Experimental: as §1

SNU407 xenograft = test: MSI xenograft model efficacy; assay type: in vivo, mouse; conditions: SNU407, colorectal carcinoma; 60 or 120 mg/kg
Experimental: as §1

3205-HX xenograft = test: MSI xenograft model efficacy; assay type: in vivo, mouse; conditions: colorectal carcinoma, 60 or 120 mg/kg
Experimental: as §1

RL95.2 xenograft = test: MSI xenograft model efficacy; assay type: in vivo, mouse; conditions: RL95.2, Endometrial carcinoma; 60 or 120 mg/kg
Experimental: as §1

BLM = target: T1, BLM (Homo sapiens, UniProt P54132); test: RecQ selectivity ATPase assay; assay type: biochemical
T1 construct: human BLM-D1D2RH (UniProt P54132: Lys640–Gly1298); His tag (N, cleaved yes); made in house; host or cells: E. coli BL21(DE3)
Experimental: (§2) DNA sequence allowing expression of human BLM-D1D2RH (UniProt P54132: Lys640–Gly1298) fused at the amino-terminal end to His tag followed by TEV-cleavage site, was inserted into a pET-derived vector. Protein expression was performed in BL21(DE3) cells after IPTG induction. Cells were collected and resuspended in lysis buffer (50 mM NaH2PO4, 300 mM NaCl, 1 mM TCEP, 20 mM imidazole, pH 8.0) supplemented with 2 mM MgCl2, benzonase and 0.5 mM AEBSF. Cells were lysed with an Emulsiflex C3 homogenizer. After ultracentrifugation, the lysate was loaded onto a HisTrap HP column. Bound protein was eluted with an imidazole gradient in lysis buffer. The amino-terminal tag was cleaved with TEV protease. Cleaved protein was loaded on Resource S ion-exchange column and eluted with a NaCl gradient in IEX buffer (20 mM Tris, 1 mM TCEP, 10% glycerol, 20 mM NaCl, pH 7.4). As a final step, BLM-D1D2RH protein was concentrated and loaded onto the Superdex 75 gel-filtration column pre-equilibrated with SEC buffer (50 mM Tris, 150 mM NaCl, 10% glycerol, pH 7.4). Eluted target protein was concentrated and frozen on dry ice. An analogous procedure was used for the expression and purification of human RecQ1-D1D2 (UniProt: P46063, Asp62–Ser482) and Human RecQ5-D1D2 (UniProt: O94762, Asp11–Trp453) proteins.
(§3) We used an ADP-Glo assay kit (Promega) to monitor ATP hydrolysis. A 45-oligonucleotide with the following sequence: […], referred to as FLAP26, as described previously[45] was purchased from IDT (Integrated DNA Technologies) and used as a DNA substrate. […] The reaction was started by addition of 2.5 μl of ssDNA substrate at 0.4 nM and incubated for 30 min at room temperature. The reaction was stopped with the addition of 5 μl of the first ADP-Glo reagent and incubated for 1 h to remove the excess amount of ATP. Then, 10 μl of ATP detection reagent was added and incubated for an additional hour before reading. The luminescence output was recorded using the Pherastar reader, with a 5 min delay before reading. Each concentration of compounds was tested in duplicates in the assay plate. The compound potency (IC50 value) was determined using custom software (Novartis Helios software application) with a four-parameter sigmoid Hill-curve model. After normalization of activity values for the wells to percentage inhibition (percentage inhibition = [(high control activity − sample activity)/(high control activity − low control activity)] × 100), IC50 fitting was performed from the duplicate determinations present on each plate.
(§4) The same ATPase assay protocol was used with the three other RecQ protein constructs to assess the selectivity over WRN. Time-course experiments were performed to determine the best enzymatic assay conditions for each RecQ protein. The experiments were run as described above with 10 nM RecQ1 protein construct with 10 nM ssDNA substrate, 2 nM BLM protein construct with 0.2 nM ssDNA substrate and 0.5 nM RecQ5 protein construct with 2 nM ssDNA substrate, respectively.

RecQ1 = target: T2, RecQ1 (Homo sapiens, UniProt P46063); test: RecQ selectivity ATPase assay; assay type: biochemical
T2 construct: human RecQ1-D1D2 (UniProt: P46063, Asp62–Ser482); His tag (N); made in house; host or cells: E. coli BL21(DE3), by the 'analogous procedure'
Experimental: as §2, §3, §4

RecQ5 = target: T3, RecQ5 (Homo sapiens, UniProt O94762); test: RecQ selectivity ATPase assay; assay type: biochemical
T3 construct: Human RecQ5-D1D2 (UniProt: O94762, Asp11–Trp453); His tag (N); made in house; host or cells: E. coli BL21(DE3), by the 'analogous procedure'
Experimental: as §2, §3, §4

T1 sequence (P54132 640-1298): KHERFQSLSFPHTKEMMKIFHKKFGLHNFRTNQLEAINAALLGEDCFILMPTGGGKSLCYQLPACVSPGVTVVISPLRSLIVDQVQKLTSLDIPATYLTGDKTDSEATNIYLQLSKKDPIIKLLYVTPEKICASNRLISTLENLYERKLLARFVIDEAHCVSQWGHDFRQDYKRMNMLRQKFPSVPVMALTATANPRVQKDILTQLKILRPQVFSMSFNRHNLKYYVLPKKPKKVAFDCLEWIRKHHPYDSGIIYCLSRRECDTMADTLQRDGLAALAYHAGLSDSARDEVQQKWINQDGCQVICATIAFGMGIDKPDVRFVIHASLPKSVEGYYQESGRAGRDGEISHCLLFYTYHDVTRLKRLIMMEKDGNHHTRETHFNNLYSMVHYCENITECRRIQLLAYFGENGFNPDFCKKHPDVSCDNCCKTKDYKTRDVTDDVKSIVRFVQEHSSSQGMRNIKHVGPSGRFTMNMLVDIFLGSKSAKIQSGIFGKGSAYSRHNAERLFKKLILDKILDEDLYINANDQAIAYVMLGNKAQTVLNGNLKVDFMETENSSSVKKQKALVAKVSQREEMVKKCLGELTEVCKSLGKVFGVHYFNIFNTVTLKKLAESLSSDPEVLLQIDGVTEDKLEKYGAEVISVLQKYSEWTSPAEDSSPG
T2 sequence (P46063 62-482): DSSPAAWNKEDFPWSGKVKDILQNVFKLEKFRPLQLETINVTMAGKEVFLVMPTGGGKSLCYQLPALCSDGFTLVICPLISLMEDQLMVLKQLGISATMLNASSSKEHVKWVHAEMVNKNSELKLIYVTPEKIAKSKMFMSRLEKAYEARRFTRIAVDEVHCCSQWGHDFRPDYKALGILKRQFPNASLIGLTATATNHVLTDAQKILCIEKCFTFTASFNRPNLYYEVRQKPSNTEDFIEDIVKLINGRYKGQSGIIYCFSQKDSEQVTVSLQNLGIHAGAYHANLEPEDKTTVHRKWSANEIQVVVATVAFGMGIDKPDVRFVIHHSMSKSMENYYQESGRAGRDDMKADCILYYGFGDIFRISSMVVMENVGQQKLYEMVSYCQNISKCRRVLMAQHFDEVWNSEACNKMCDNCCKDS
T3 sequence (O94762 11-453): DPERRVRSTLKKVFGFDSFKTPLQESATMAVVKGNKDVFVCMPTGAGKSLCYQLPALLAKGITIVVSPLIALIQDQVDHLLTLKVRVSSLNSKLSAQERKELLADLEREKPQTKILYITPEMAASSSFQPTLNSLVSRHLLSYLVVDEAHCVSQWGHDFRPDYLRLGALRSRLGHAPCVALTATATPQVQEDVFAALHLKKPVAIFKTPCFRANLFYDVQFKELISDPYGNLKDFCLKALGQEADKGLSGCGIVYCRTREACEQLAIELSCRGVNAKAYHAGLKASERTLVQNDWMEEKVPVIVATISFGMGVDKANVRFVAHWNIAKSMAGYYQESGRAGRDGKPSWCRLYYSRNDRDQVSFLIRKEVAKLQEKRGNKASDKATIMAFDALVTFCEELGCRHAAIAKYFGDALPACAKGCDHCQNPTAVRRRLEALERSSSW

Question: Which results are given for `CCc1c(N2CCN(C(=O)c3ncnc(C)c3O)CC2)c(=O)n2nc(C3=CCOCC3)nc2n1CC(=O)Nc1ccc(C(F)(F)F)cc1Cl` [HRO761]?
Answer: Best average response (HEC6 xenograft): -75; Best average response (5495-HX xenograft): -50; Best average response (5148-HX xenograft): -36; Best average response (SNU407 xenograft): -40; Best average response (3205-HX xenograft): 400; Best average response (RL95.2 xenograft): -66; IC50 (BLM): > 100 µM; IC50 (RecQ1): > 100 µM; IC50 (RecQ5): > 100 µM
